The source of these data is article PMC11001683 (European Journal of Clinical Pharmacology, 2024).

The half-life is how long it takes for the measured level to halve.

Data set [1] can be described thus: ACD855 clinical signs in dogs. The data set is classed as in vivo.
For data set [2] the following is noted: mice; cited from earlier work.
Data set [3] in a line: Allometric scaling prediction of ACD855 elimination half-life in man. The arrangement: species or system human. As for the experimental part: (§1) The clinical efficacy, safety, and pharmacokinetics (PK) of ACD855 have been evaluated in various domestic animals for the use as a veterinary drug. […] Based on pharmacology studies in rodents and safety studies in rat and dog, the first oral dose in an initiated Phase I single ascending dose (SAD) study (EudraCT No. 2018-002320-16), in healthy volunteers was set to 1 mg. […] The study was prematurely terminated after interim PK analysis of the first cohort, and long-term follow-up of the dosed subjects was performed.

The nature of data set [4]: ACD855 mutagenic/genotoxic potential. As to the method: as §1
Details of data set [5]: method as in PMID 37394539. To be noted: cited from earlier work.
Data set [6] can be described thus: ACD855 Phase I SAD study, cohort 1, plasma pharmacokinetics. Type of data set: in vivo. To be noted: human, 1 mg oral. As for the experimental part: as §1

Consider `Cc1cc(-n2c(=O)[nH]c(=O)n(C)c2=O)ccc1Oc1ccc(S(=O)(=O)C(F)(F)F)cc1` [ACD855, Ponazuril], for which the “notable clinical signs in dogs” value in data set [1] is “gastrointestinal disturbance”. In addition, the “effect in preclinical in vivo cognition models” value in data set [2] is reported as “pro-cognitive effects”. The “predicted elimination half-life in man” value in data set [3] is given as 4.6 days. In addition, the “mutagenic or genotoxic potential” value in data set [4] was “no indication of any mutagenic or genotoxic potential”. For the same compound, the “effect in the forced swim test model” value in data set [5] is “anti-depressant-like effects”. Further, the concentration at 280 days in data set [6] (all subjects but one, detection limit 1 ng/mL, read-out: plasma level at 280 days) was > 1 ng/mL. Further, the half-life in data set [6] (cohort 1, healthy volunteers, read-out: elimination half-life in plasma in humans, average (converted)) is 68 days.
